Source: ChEMBL document CHEMBL1795309, “Thiophenyl oxime-derived phosphonates as nano-molar class C beta-lactamase inhibitors reducing MIC of imipenem against Pseudomonas aeruginosa and Acinetobacter baumannii” (Bioorg Med Chem Lett, 2011)
The source made the active and inactive calls. The calls are words filed in the database; no cut-off is given here.

Tests used:
Beta-lactamase [1] = target: Beta-lactamase (Enterobacter cloacae, UniProt P05364); experiment: Inhibition of Enterobacter cloacae beta lactamase P99
Sequence of Beta-lactamase (Enterobacter cloacae, UniProt P05364) (P05364 whole entry): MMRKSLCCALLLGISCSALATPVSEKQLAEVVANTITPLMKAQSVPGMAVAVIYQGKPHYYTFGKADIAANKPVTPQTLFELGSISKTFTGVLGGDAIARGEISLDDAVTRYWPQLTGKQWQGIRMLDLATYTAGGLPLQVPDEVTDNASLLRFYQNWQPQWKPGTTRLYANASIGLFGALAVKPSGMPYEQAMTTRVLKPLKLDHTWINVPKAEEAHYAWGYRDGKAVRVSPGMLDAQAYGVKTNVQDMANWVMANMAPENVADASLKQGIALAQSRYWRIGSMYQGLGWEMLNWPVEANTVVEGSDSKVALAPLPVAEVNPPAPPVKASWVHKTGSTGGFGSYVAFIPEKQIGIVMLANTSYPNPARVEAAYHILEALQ

[2] = Inhibition of Pseudomonas aeruginosa beta lactamase TEM-1
Beta-lactamase [3] = target: Beta-lactamase (Pseudomonas aeruginosa (strain ATCC 15692 / PAO1 / 1C / PRS 101 / LMG12228), UniProt P24735); experiment: Inhibition of Pseudomonas aeruginosa beta lactamase AmpC
Sequence of Beta-lactamase (Pseudomonas aeruginosa (strain ATCC 15692 / PAO1 / 1C / PRS 101 / LMG12228), UniProt P24735) (P24735 whole entry): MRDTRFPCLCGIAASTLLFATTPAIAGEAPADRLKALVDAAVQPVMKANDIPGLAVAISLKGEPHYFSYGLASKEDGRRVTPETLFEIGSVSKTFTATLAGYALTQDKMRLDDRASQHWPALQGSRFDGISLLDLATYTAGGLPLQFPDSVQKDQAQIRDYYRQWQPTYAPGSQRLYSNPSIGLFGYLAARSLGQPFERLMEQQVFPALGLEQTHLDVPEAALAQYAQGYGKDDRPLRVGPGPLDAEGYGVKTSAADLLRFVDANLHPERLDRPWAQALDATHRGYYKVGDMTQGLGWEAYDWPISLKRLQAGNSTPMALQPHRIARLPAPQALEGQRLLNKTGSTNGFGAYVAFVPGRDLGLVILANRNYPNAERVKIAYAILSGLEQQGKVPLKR

Beta-lactamase SHV-5 = Beta-lactamase SHV-5 (Klebsiella pneumoniae, UniProt P0A3M1); experiment: Inhibition of Klebsiella pneumoniae beta lactamase SHV-5
Sequence of Beta-lactamase SHV-5 (P0A3M1 whole entry): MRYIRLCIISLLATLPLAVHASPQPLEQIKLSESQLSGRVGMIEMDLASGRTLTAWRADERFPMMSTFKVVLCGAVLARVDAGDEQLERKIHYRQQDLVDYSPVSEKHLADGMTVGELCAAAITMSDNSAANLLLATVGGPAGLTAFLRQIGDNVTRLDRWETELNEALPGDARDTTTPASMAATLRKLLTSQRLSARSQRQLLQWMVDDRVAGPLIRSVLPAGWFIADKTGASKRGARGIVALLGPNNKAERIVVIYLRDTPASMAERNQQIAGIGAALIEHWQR

Beta-lactamase [4] = target: Beta-lactamase (Acinetobacter baumannii, UniProt Q8RLA6); experiment: Inhibition of Acinetobacter baumannii beta lactamase OXA-40
Sequence of Beta-lactamase (Acinetobacter baumannii, UniProt Q8RLA6) (Q8RLA6 whole entry): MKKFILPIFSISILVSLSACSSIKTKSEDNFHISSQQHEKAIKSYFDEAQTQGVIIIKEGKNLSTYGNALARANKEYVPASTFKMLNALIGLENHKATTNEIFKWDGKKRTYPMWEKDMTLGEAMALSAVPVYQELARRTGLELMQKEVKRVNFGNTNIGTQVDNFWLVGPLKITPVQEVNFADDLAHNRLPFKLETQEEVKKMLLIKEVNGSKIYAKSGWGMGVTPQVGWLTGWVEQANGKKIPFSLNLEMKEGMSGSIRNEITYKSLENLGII

Pseudomonas aeruginosa [5] = experiment: Antimicrobial activity against imipenem-resistant Pseudomonas aeruginosa expressing beta lactamase AmpC assessed as reduction in imipenim MIC; type: functional, organism-based
Pseudomonas aeruginosa [6] = experiment: Antimicrobial activity against imipenem-resistant Pseudomonas aeruginosa expressing beta lactamase AmpC up to 100 uM; type: functional, organism-based
Acinetobacter baumannii [7] = experiment: Antimicrobial activity against imipenem-resistant Acinetobacter baumannii CL6188 assessed as reduction in imipenim MIC; type: functional, organism-based
[8] = Half life in mouse at 2.5 mg/kg, iv; type: ADME, organism-based; design: dose 2.5 mg/kg, route intravenous; settings: in vivo
[9] = Clearance in mouse at 2.5 mg/kg, iv; type: ADME, organism-based; design: dose 2.5 mg/kg, route intravenous; settings: in vivo
[10] = Volume of distribution in mouse at 2.5 mg/kg, iv; type: ADME, organism-based; design: dose 2.5 mg/kg, route intravenous; settings: in vivo
Mus musculus = experiment: Dose normalized AUC in mouse at 2.5 mg/kg, iv; type: ADME, organism-based; design: dose 2.5 mg/kg, route intravenous; settings: in vivo
Pseudomonas aeruginosa [11] = experiment: Antimicrobial activity against imipenem-resistant Pseudomonas aeruginosa expressing beta lactamase AmpC assessed as reduction in imipenim MIC up to 100 uM; type: functional, organism-based
Acinetobacter baumannii [12] = experiment: Antimicrobial activity against imipenem-resistant Acinetobacter baumannii CL6188 at 100 uM; type: functional, organism-based

Row | SMILES | IC50 (Beta-lactamase [1]) [µM] | IC50 [2] [µM] | IC50 (Beta-lactamase [3]) [µM] | IC50 (Beta-lactamase SHV-5) [µM] | IC50 (Beta-lactamase [4]) [µM] | Activity (Pseudomonas aeruginosa [5]) | Activity (Pseudomonas aeruginosa [6]) | Activity (Acinetobacter baumannii [7]) | half-life [8] [min] | clearance [9] [mL/min/kg] | Vd [10] [L/kg] | AUC/dose (Mus musculus) [µM/h/kg/mg] | Activity (Pseudomonas aeruginosa [11]) | Activity (Acinetobacter baumannii [12])
1 | N#Cc1ccc(OP(=O)([O-])CNC(=O)/C(=N\OCCC[n+]2ccccc2)c2cccs2)cc1F (stereo in doubt; 6b) | 0.17 | > 50 | 0.087 | > 50 | > 50 |  |  |  |  |  |  |  |  | 
2 | CO/N=C(/C(=O)NCP(=O)(O)O)c1cccs1 | 3 | > 50 | 3.2 | > 50 | > 50 |  |  |  |  |  |  |  |  | 
3 | CO/N=C(/C(=O)NCP(=O)(O)Oc1ccc(C#N)c(F)c1)c1cccs1 | 0.032 | 28 | 0.0075 | 22 | 17 | Dose-dependent effect | inactive | Active | 32.4 | 43 | 1 | 0.98 | Active | inactive
4 | N#Cc1ccc(OP(=O)(O)CNC(=O)C(=NO)c2cccs2)cc1F | 0.1 | 23 | 0.2 | 27 | 21 |  |  |  |  |  |  |  |  | 
5 | CO/N=C(\C(=O)NCP(=O)(O)Oc1ccc(C#N)c(F)c1)c1cnc(N)s1 | 0.8 | > 50 | 1.5 | > 50 | > 50 |  |  |  |  |  |  |  |  | 
6 | CO/N=C(\C(=O)NCP(=O)(O)Oc1ccc(C#N)c(F)c1)c1cccs1 | 0.1 | > 50 | 0.046 | > 12.5 | 26 |  |  |  |  |  |  |  |  | 
7 | CO/N=C(/C(=O)NCP(=O)(O)Oc1ccc(C#N)c(F)c1)c1ccc(Cl)s1 | 0.019 | 16 | 0.005 |  | 31 | Dose-dependent effect | inactive | inactive |  |  |  |  | Active | inactive
8 | CON=C(C(=O)NCP(=O)(O)Oc1ccc(C#N)c(F)c1)c1cccs1 | 0.039 | > 50 | 0.0096 | > 50 | > 50 |  |  |  |  |  |  |  |  | 
9 | N#Cc1ccc(OP(=O)([O-])CNC(=O)/C(=N\OCCC[n+]2ccccc2)c2cccs2)cc1F (stereo in doubt; 6a) | 0.087 | 17 | 0.021 | > 50 | 27 |  |  |  |  |  |  |  |  | 
10 | CO/N=C(\C(=O)NCP(=O)(O)Oc1ccc(C#N)c(F)c1)c1cnc(NC(=O)C(Cl)(Cl)Cl)s1 (stereo in doubt; 2a) | 0.34 | > 50 | 3 | 25 | > 12.5 |  |  |  |  |  |  |  |  | 
11 | CO/N=C(\C(=O)NCP(=O)(O)O)c1cccs1 | 21 | > 50 | 6.5 | > 50 | > 50 |  |  |  |  |  |  |  |  | 
12 | CO/N=C(\C(=O)NCP(=O)(O)Oc1ccc(C#N)c(F)c1)c1cnc(NC(=O)C(Cl)(Cl)Cl)s1 (stereo in doubt; 2b) | 0.71 |  | 3 | 15 | > 12.5 |  |  |  |  |  |  |  |  | 
